From PubChem BioAssay (NCI)
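Step 1: Grow cells in 96-well plates. Step 2: Expose to compound for 48 hours at 5 concentrations. Step 3: Interpolate endpoints linearly; if unreached, use highest concentration. TGI: total growth inhibition.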 Where a SMILES comes first, the peptide text is derived from it. [ ]: non-standard residue; d: D form. β3hI = CC[CH](C)[CH](N)CC(=O)O

Experiments:
Experiment in all cases: NCI tumour cell line growth inhibition, 48 h
BT-549 breast = test system: BT-549 breast
HCT-116 colon = test system: HCT-116 colon
HT29 colon = test system: HT29 colon
MOLT-4 leukemia = test system: MOLT-4 leukemia
EKVX NSCLC = test system: EKVX NSCLC
SK-MEL-5 melanoma = test system: SK-MEL-5 melanoma
SK-MEL-2 melanoma = test system: SK-MEL-2 melanoma
M14 melanoma = test system: M14 melanoma
CAKI-1 renal = test system: CAKI-1 renal
SF-295 CNS = test system: SF-295 CNS
CCRF-CEM leukemia = test system: CCRF-CEM leukemia
MDA-MB-435 = test system: MDA-MB-435
HL-60(TB) leukemia = test system: HL-60(TB) leukemia
UO-31 renal = test system: UO-31 renal
NCI-H23 lung = test system: NCI-H23 lung
ACHN renal = test system: ACHN renal

Row | SMILES | TGI (BT-549 breast) [µM] | TGI (HCT-116 colon) [µM] | TGI (HT29 colon) [µM] | TGI (MOLT-4 leukemia) [µM] | TGI (EKVX NSCLC) [µM] | TGI (SK-MEL-5 melanoma) [µM] | TGI (SK-MEL-2 melanoma) [µM] | TGI (M14 melanoma) [µM] | TGI (CAKI-1 renal) [µM] | TGI (SF-295 CNS) [µM] | TGI (CCRF-CEM leukemia) [µM] | TGI (MDA-MB-435) [µM] | TGI (HL-60(TB) leukemia) [µM] | TGI (UO-31 renal) [µM] | TGI (NCI-H23 lung) [µM] | TGI (ACHN renal) [µM]
1 | CNC(=O)CCCN(C)C(=O)CCCCC(=O)N(C)C | > 100 | > 100 | > 100 | > 100 | > 100 | > 100 | > 100 | > 100 | > 100 | > 100 | > 100 | > 100 | > 100 | > 100 | > 100 | > 100
2 | c1ccc2c(c1)Nc1nc3nonc3nc1N2 | > 100 | > 100 | > 100 | > 100 | > 100 | > 100 | > 100 | > 100 | > 100 | > 100 | > 100 | > 100 | > 100 | > 100 | > 100 | > 100
3 | CCC(C)C(CC(=O)N1CCCC1C(=O)NC(C(=O)NC(C(=O)NCC(=O)NC(CC(N)=O)C(=O)NC(C(=O)NC(C(=O)NC(CCCCN)C(N)=O)C(C)CC)C(C)CC)C(C)C)C(C)CC)NC(=O)C(N)C(C)CC (stereo not drawn) (H-I[β3hI]PIVGNIIK-NH2; configuration not given here) | > 50 | > 50 | > 50 | > 50 | > 50 | > 50 | > 50 | > 50 | > 50 | > 50 | > 50 | > 50 | > 50 | > 50 | > 50 | > 50
4 | CC(C)n1c2c([n+](C)c1/C=C/c1ccccc1)C(=O)c1ccccc1C2=O | 0.667 | 0.433 | 2.18 | 0.745 | 1.25 | 0.252 | 0.48 | 1.08 | 12.4 | 2.52 | 10.9 | 0.547 | 1.14 | 10.1 | 0.412 | 10.9
5 | CC(C)NC(=O)OCCN=C1c2ccccc2CCc2ccccc21 | 28.5 | 46.6 | 47.6 | 39.7 | 81.3 | 27.4 | 34.6 | 39.7 | > 100 | 28.7 | 46.5 | 55.1 | 45.7 | 58.7 | > 100 | 68.4
6 | CCOC(=O)CCC(NC(=O)c1ccc(OCc2nc3ccccc3n3cccc23)cc1)C(=O)OCC (stereo not given) | > 100 | > 100 | > 100 | > 100 | > 100 | > 100 | > 100 | > 100 | > 100 | > 100 | > 100 | > 100 | > 100 | > 100 | > 100 | > 100
7 | O=C(NCCO)Nc1c(C(F)(F)F)cc(-c2ccccc2)[nH]c1=O | > 100 | > 100 | > 100 | > 100 | > 100 | > 100 | > 100 | > 100 | > 100 | > 100 | > 100 | > 100 | > 100 | > 100 | > 100 | > 100
8 | Oc1ccc(Cn2c(-c3ccc(O)c(O)c3)nc3ccccc32)cc1O | 51 | 16.3 | 84.7 | 12.4 | 75.7 | 50.9 | 39 | 42.2 | 54.6 | 68 | 32.8 | 32 | 51.1 | 47.3 | 75.4 | 60.2
9 | O=c1[nH]nc(Cc2ccc(Cl)cc2)n1/N=C\c1ccc(/C=N/n2c(Cc3ccc(Cl)cc3)n[nH]c2=O)cc1 | > 100 | > 100 | > 100 | > 100 | > 100 | > 100 | > 100 | > 100 | > 100 | > 100 | > 100 | > 100 | > 100 | > 100 | > 100 | > 100
10 | COc1ccc2[nH]c3c(c2c1)COc1ccccc1C3=O | > 100 | > 100 | > 100 | > 100 | > 100 | > 100 | > 100 | > 100 | > 100 | > 100 | > 100 | > 100 | > 100 | > 100 | > 100 | > 100
